Data published in DBAASP.
Converted amounts (≈) assume the structure as drawn.

How the values were obtained:
Assay in all cases: ≥ marks a high value that may be exact or a test limit, other limits are often not marked, values filed in µg/mL are converted to µM
[1] = tested on: Candida albicans ATCC 1023
[2] = tested on: Escherichia coli ATCC 25922
[3] = tested on: Pseudomonas aeruginosa ATCC 27853
[4] = tested on: Staphylococcus aureus ATCC 25923
Candida albicans = tested on: Candida albicans
[5] = tested on: Bacillus megaterium ATCC 10778
Micrococcus luteus A270 = tested on: Micrococcus luteus A270
[6] = tested on: Candida tropicalis IOC 4560
Candida albicans MDM8 = tested on: Candida albicans MDM8
[7] = tested on: Enterobacter cloacae beta-12
[8] = tested on: Serratia marcescens ATCC 4112
Escherichia coli SBS 363 = tested on: Escherichia coli SBS 363
Aspergillus niger = tested on: Aspergillus niger
Penicillium expansum = tested on: Penicillium expansum
Cryptococcus neoformans = tested on: Cryptococcus neoformans
[9] = tested on: Staphylococcus aureus ATCC 9144
[10] = tested on: Candida albicans ATCC 10231
[11] = tested on: Corynebacterium glutamicum ATCC 13032
Aureobasidium pullulans = tested on: Aureobasidium pullulans
[12] = tested on: Pseudomonas aeruginosa 910
[13] = tested on: Pseudomonas aeruginosa 919
[14] = tested on: Pseudomonas aeruginosa 253
[15] = tested on: Pseudomonas aeruginosa PAO1
[16] = tested on: Klebsiella pneumoniae KpC+001825971
[17] = tested on: Klebsiella pneumoniae ATCC 13883
Escherichia coli BL21 = tested on: Escherichia coli BL21
[18] = tested on: Escherichia coli KpC+001812446
[19] = tested on: Pseudomonas aeruginosa PA14
Acinetobacter baumannii = tested on: Acinetobacter baumannii
Staphylococcus aureus MR = tested on: Staphylococcus aureus MR
[20] = tested on: Staphylococcus aureus ATCC 12600
Enterobacter cloacae = tested on: Enterobacter cloacae
[21] = tested on: Escherichia coli ATCC 11775
Escherichia coli ESBL = tested on: Escherichia coli ESBL
[22] = tested on: Escherichia coli ATCC 35218
Escherichia coli ESBL 4 = tested on: Escherichia coli ESBL 4
[23] = tested on: Escherichia coli ATCC 43827
[24] = tested on: Klebsiella pneumoniae E406-17
[25] = tested on: Staphylococcus aureus M838-17
[26] = tested on: Pseudomonas aeruginosa E411-17
[27] = tested on: Trichophyton rubrum ATCC 28189
Escherichia coli = tested on: Escherichia coli
[28] = tested on: Candida albicans ATCC 24433
[29] = tested on: Candida parapsilosis ATCC 22019
Staphylococcus aureus = tested on: Staphylococcus aureus

CC[C@H](C)[C@H](NC(=O)CN)C(=O)N[C@@H](CC(C)C)C(=O)N[C@@H](CC(=O)O)C(=O)N[C@@H](C)C(=O)N[C@H](C(=O)N[C@@H](CCCCN)C(=O)N[C@@H](C)C(=O)N[C@H](C(=O)N[C@@H](C)C(=O)N[C@@H](CCCCN)C(=O)N[C@@H](C)C(=O)N[C@@H](C)C(=O)NCC(N)=O)[C@@H](C)CC)[C@@H](C)CC [GILDAIKAIAKAAG]
MIC [1]: ≥ 195 µM | MIC [2]: 24.4 µM (≈ 32 µg/mL) | MIC [3]: 48.8 µM (≈ 64 µg/mL) | MIC [4]: 6.1 µM (≈ 7.99 µg/mL) | MIC (Candida albicans): 195 µM (≈ 256 µg/mL)

CC(C)C[C@H](NC(=O)CN)C(=O)NCC(=O)N[C@@H](C)C(=O)N[C@@H](CC(C)C)C(=O)N[C@@H](Cc1c[nH]c2ccccc12)C(=O)N[C@@H](CC(N)=O)C(=O)N[C@H](C(=O)N[C@@H](C)C(=O)N[C@@H](CCCCN)C(=O)N[C@@H](CO)C(=O)N[C@H](C(=O)N[C@@H](Cc1ccccc1)C(N)=O)C(C)C)C(C)C [GLGALWNVAKSVF]
MIC [5]: 3.1 µM (≈ 4.22 µg/mL) | MIC (Micrococcus luteus A270): 0.8 µM (≈ 1.09 µg/mL) | MIC [6]: 25 µM (≈ 34 µg/mL) | MIC (Candida albicans MDM8): 25 µM (≈ 34 µg/mL) | MIC [7]: ≥ 50 µM | MIC [8]: 0.8 µM (≈ 1.09 µg/mL) | MIC [3]: > 50 µM | MIC (Escherichia coli SBS 363): ≥ 50 µM

CSCC[C@H](NC(=O)CNC(=O)[C@H](CC(C)C)NC(=O)[C@H](Cc1ccccc1)NC(=O)CNC(=O)[C@H](CO)NC(=O)[C@@H]1CCCN1C(=O)CN)C(=O)N[C@@H](CCCN=C(N)N)C(=O)O [GPSGFLGMR]
MIC (Aspergillus niger): ≥ 128 µM | MIC (Penicillium expansum): ≥ 128 µM | MIC (Micrococcus luteus A270): ≥ 128 µM | MIC (Cryptococcus neoformans): ≥ 128 µM | MIC [3]: 64 µM (≈ 58.9 µg/mL) | MIC (Escherichia coli SBS 363): ≥ 100 µM

CC(C)[C@H](NC(=O)[C@H](CCCCN)NC(=O)[C@H](C)NC(=O)[C@@H](NC(=O)[C@@H](NC(=O)[C@H](CCCN=C(N)N)NC(=O)[C@H](CCCN=C(N)N)NC(=O)[C@H](Cc1c[nH]c2ccccc12)NC(=O)[C@H](Cc1c[nH]c2ccccc12)NC(=O)CN)[C@@H](C)O)C(C)C)C(=O)N[C@@H](CCCN=C(N)N)C(=O)N[C@@H](C)C(N)=O [GWWRRTVAKVRA]
MIC [9]: ≥ 50 µM | MIC [10]: 25 µM (≈ 37.1 µg/mL) | MIC [11]: 0.8 µM (≈ 1.19 µg/mL) | MIC (Aureobasidium pullulans): ≥ 50 µM | MIC [2]: 6.3 µM (≈ 9.35 µg/mL) | MIC [3]: 6.3 µM (≈ 9.35 µg/mL)

CC[C@H](C)[C@H](N)C(=O)N[C@@H](CC(C)C)C(=O)N[C@@H](CCCCN)C(=O)N[C@@H](Cc1c[nH]c2ccccc12)C(=O)N[C@@H](CCCCN)C(=O)N[C@@H](CCCN=C(N)N)C(=O)N[C@@H](CCCCN)C(=O)N[C@@H](Cc1c[nH]c2ccccc12)C(=O)N[C@@H](Cc1c[nH]c2ccccc12)C(=O)N[C@@H](CCCCN)C(=O)N[C@@H](Cc1c[nH]c2ccccc12)C(=O)N[C@@H](Cc1ccccc1)C(=O)N[C@@H](CCCN=C(N)N)C(N)=O [ILKWKRKWWKWFR]
MIC [12]: 4 µM (≈ 7.84 µg/mL) | MIC [13]: ≥ 32 µM | MIC [14]: 8 µM (≈ 15.7 µg/mL) | MIC [15]: 2 µM (≈ 3.92 µg/mL)

CC[C@H](C)[C@H](N)C(=O)N[C@@H](CC(N)=O)C(=O)N[C@@H](CC(C)C)C(=O)N[C@@H](CCCCN)C(=O)N[C@@H](CCCCN)C(=O)N[C@@H](CC(C)C)C(=O)N[C@@H](C)C(=O)N[C@@H](C)C(=O)N[C@@H](CCCN=C(N)N)C(=O)N[C@H](C(=O)N[C@@H](CCCCN)C(=O)N[C@@H](CCCCN)C(=O)N[C@@H](CCCCN)C(=O)N[C@H](C(N)=O)[C@@H](C)CC)[C@@H](C)CC [INLKKLAARIKKKI]
MIC [16]: ≥ 32 µM | MIC [17]: ≥ 32 µM | MIC (Escherichia coli BL21): 2 µM (≈ 3.27 µg/mL) | MIC [18]: 8 µM (≈ 13.1 µg/mL) | MIC [19]: 4 µM (≈ 6.54 µg/mL) | MIC (Acinetobacter baumannii): ≥ 32 µM | MIC (Staphylococcus aureus MR): 8 µM (≈ 13.1 µg/mL) | MIC [2]: 4 µM (≈ 6.54 µg/mL) | MIC [20]: 4 µM (≈ 6.54 µg/mL) | MIC [15]: 4 µM (≈ 6.54 µg/mL) | MIC [4]: 8 µM (≈ 13.1 µg/mL) | MIC (Enterobacter cloacae): ≥ 32 µM

CC[C@H](C)[C@H](NC(=O)[C@H](Cc1ccc(O)cc1)NC(=O)[C@H](CCC(N)=O)NC(=O)[C@H](CC(C)C)NC(=O)[C@H](C)NC(=O)[C@H](CCCCN)NC(=O)[C@H](CCCCN)NC(=O)[C@H](CCSC)NC(=O)[C@H](CCCCN)NC(=O)[C@@H](N)CCCCN)C(=O)N[C@@H](CCCCN)C(=O)N[C@@H](CC(C)C)C(=O)N[C@@H](CC(C)C)C(=O)N[C@@H](CCCCN)C(N)=O [KKMKKALQYIKLLK]
MIC [21]: ≥ 100 µM | MIC (Escherichia coli ESBL): 25 µM (≈ 43.3 µg/mL) | MIC [22]: 25 µM (≈ 43.3 µg/mL) | MIC [2]: 50 µM (≈ 86.6 µg/mL) | MIC [3]: > 100 µM | MIC (Escherichia coli ESBL 4): ≥ 100 µM | MIC [23]: 25 µM (≈ 43.3 µg/mL)

CC(C)C[C@H](NC(=O)[C@H](Cc1c[nH]c2ccccc12)NC(=O)[C@H](Cc1c[nH]c2ccccc12)NC(=O)[C@H](Cc1c[nH]c2ccccc12)NC(=O)[C@H](Cc1c[nH]c2ccccc12)NC(=O)[C@H](CCCN=C(N)N)NC(=O)[C@H](CCCN=C(N)N)NC(=O)[C@@H](N)CCCN=C(N)N)C(N)=O [RRRWWWWL]
MIC [24]: 6.25 µM (≈ 8.4 µg/mL) | MIC [25]: 3.1 µM (≈ 4.17 µg/mL) | MIC [26]: 6.25 µM (≈ 8.4 µg/mL)

CC[C@H](C)[C@H](NC(=O)[C@H](CC(C)C)NC(=O)[C@H](CCC(N)=O)NC(=O)[C@H](CO)NC(=O)[C@H](CCCN=C(N)N)NC(=O)[C@@H](N)CO)C(=O)N[C@H](C(=O)N[C@@H](Cc1cnc[nH]1)C(=O)N[C@@H](CCC(N)=O)C(=O)N[C@@H](CCCN=C(N)N)C(=O)N[C@@H](CC(C)C)C(=O)N[C@@H](Cc1ccccc1)C(N)=O)C(C)C [SRSQLIVHQRLF]
MIC [27]: ≥ 270 µM | MIC (Escherichia coli): > 270 µM | MIC [28]: ≥ 270 µM | MIC [29]: ≥ 270 µM | MIC (Staphylococcus aureus): > 270 µM
